The results in this text go back to patent US9815796B2 (Merck Sharp & Dohme Corp., priority 2013, dated 2017).

Structures are written as SMILES.

For the first assay, the target named is Rhesus PDE2A3 (Macaca mulatta, UniProt B3VTJ2). The experiment in a line: PDE2 fluorescence polarization (IMAP FP) inhibition assay, rhesus enzyme. It is filed as biochemical, rhesus macaque. The settings on record: Rhesus PDE2, Lab A; read-out: Rhesus PDE2 Ki (nM) - Lab A. The gist of the method: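 IMAP FP (mP from parallel and perpendicular fluorescence against substrate-only control) was read ≥1 h after adding binding reagent. The preceding 60 min room-temperature reaction contained FAM-cAMP (50 nM) and cGMP (1 uM) in pH 7.2 Tris buffer with MgCl2 and DTT. Enzyme was supernatant of sonicated AD293 cells expressing rhesus PDE2A3; compounds were 3-fold titrated, DMSO 1% final.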
Chain of Rhesus PDE2A3 (B3VTJ2 1-941): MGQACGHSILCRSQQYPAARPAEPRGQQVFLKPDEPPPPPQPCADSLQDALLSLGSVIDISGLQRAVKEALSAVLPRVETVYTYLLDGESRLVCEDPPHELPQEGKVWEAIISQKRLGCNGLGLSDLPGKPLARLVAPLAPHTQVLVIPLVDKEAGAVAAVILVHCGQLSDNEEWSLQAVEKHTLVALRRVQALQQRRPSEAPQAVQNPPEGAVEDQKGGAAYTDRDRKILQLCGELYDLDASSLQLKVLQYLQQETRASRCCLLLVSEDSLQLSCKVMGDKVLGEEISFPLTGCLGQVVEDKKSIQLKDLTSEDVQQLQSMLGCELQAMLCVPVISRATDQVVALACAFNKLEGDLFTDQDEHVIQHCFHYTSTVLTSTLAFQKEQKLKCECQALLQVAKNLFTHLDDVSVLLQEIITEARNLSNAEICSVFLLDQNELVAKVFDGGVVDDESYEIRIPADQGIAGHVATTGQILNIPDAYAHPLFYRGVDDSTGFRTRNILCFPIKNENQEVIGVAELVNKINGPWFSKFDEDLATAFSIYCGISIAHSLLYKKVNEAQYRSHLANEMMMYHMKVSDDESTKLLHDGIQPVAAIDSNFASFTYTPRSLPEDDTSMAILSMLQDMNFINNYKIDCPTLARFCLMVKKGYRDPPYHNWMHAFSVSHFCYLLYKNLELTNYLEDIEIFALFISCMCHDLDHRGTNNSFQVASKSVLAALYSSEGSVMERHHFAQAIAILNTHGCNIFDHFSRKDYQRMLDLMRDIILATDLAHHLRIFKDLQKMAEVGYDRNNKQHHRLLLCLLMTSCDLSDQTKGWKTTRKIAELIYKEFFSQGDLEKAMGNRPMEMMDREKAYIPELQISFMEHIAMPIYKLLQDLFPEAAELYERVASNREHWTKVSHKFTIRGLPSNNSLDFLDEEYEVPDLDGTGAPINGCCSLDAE
(In fluorescence polarisation assays a small probe gives low polarisation when free and higher when bound to something large.)
Consider `COCc1nc(C(=O)NC(C)(C)c2ccc(C(F)(F)F)cc2)cc(=O)[nH]1` [Example 124, 2-(methoxymethyl)-N-{1-methyl-1-[4-(trifluoromethyl)phenyl]ethyl}-6-oxo-1,6-dihydropyrimidine-4-carboxamide], for which the Ki – broadly, the equilibrium dissociation constant of an inhibitor or competing ligand from its target – amounted to 283 nM. The same measure, in the same setting: the same measure for `CC(C)(NC(=O)c1cc(=O)[nH]c(-c2ncccn2)n1)c1ccc(OC(F)(F)F)c(F)c1` [Example 71, N-{1-[3-fluoro-4-(trifluoromethoxy)phenyl]-1-methylethyl}-6-oxo-1,6-dihydro-2,2′-bipyrimidine-4-carboxamide]: 1570 nM; for `Cc1nc(C(=O)N[C@H](C)c2cccc(C(F)(F)F)c2)cc(=O)[nH]1` [Example 271, 2-methyl-6-oxo-N-{(1R)-1-[3-(trifluoromethyl)phenyl]ethyl}-1,6-dihydropyrimidine-4-carboxamide]: 2960 nM. For `Cc1nc(C(=O)N[C@@H](C)c2ccc(OC(F)F)cc2)cc(=O)[nH]1` [Example 56, (S)-N-(1-(4-(difluoromethoxy)phenyl)ethyl)-2-methyl-6-oxo-1,6-dihydropyrimidine-4-carboxamide], the inhibitory constant (Ki) turned out to be 4590 nM.

Consider `COc1ccc2cc(C(C)NC(=O)c3cc(=O)[nH]c(C)n3)ccc2c1` (single isomer, unassigned) [Example 314, (S)- or (R)-N-[1-(6-methoxynaphthalen-2-yl)ethyl]-2-methyl-6-oxo-1,6-dihydropyrimidine-4-carboxamide], for which the inhibition constant (Ki) is 4740 nM. The same measure, in the same setting: to `COc1ccc(Cc2nc(C(=O)NC3(C)CC3)cc(=O)[nH]2)cc1OC` [Example 5, 2-(3,4-dimethoxybenzyl)-N-(1-methylcyclopropyl)-6-oxo-1,6-dihydropyrimidine-4-carboxamide] belongs 1150 nM; to `C[C@@H](NC(=O)c1cc(=O)[nH]c(-c2ncccn2)n1)c1ccc(C(F)(F)F)c2ccccc12` [Example 102, 6-oxo-N-{(1R)-1-[4-(trifluoromethyl)naphthalen-1-yl]ethyl}-1,6-dihydro-2,2′-bipyrimidine-4-carboxamide], 5120 nM.

On to `CC(NC(=O)c1cc(=O)[nH]c(-c2ncccn2)n1)c1ncc(C(F)(F)F)cn1` (stereo not drawn) [Example 105, 6-oxo-N-{1-[5-(trifluoromethyl)pyrimidin-2-yl]ethyl}-1,6-dihydro-2,2′-bipyrimidine-4-carboxamide], for which the Ki worked out at 3470 nM. The same measure, in the same setting: to `CC[C@@H](NC(=O)c1cc(=O)[nH]c(-c2ncccn2)n1)c1ccc(SC(F)(F)F)cc1` [Example 100, 6-oxo-N-[(1R)-1-{4-[(trifluoromethyl)sulfanyl]phenyl]propyl]-1,6-dihydro-2,2′-bipyrimidine-4-carboxamide] belongs 2.6 nM; to `O=C(NCc1ccc(C(F)(F)F)cc1Cl)c1cc(=O)[nH]c(-c2ccccc2)n1` [Example 181, N-[2-chloro-4-(trifluoromethyl)benzyl]-6-oxo-2-phenyl-1,6-dihydropyrimidine-4-carboxamide], 485 nM.

Turning to `Cc1nc(C(=O)N[C@@H](c2ccc(C(F)(F)F)cc2)[C@H](C)O)cc(=O)[nH]1` [Example 64, N-((1S,2S)-2-hydroxy-1-(4-(trifluoromethyl)phenyl)propyl)-2-methyl-6-oxo-1,6-dihydropyrimidine-4-carboxamide], the Ki is around 39300 nM. Regarding `CC(NC(=O)c1cc(=O)[nH]c(C2CC2)n1)c1ncc(C(F)(F)F)cn1` (stereo not drawn) [Example 203, 2-cyclopropyl-6-oxo-N-{1-[5-(trifluoromethyl)pyrimidin-2-yl]ethyl}-1,6-dihydropyrimidine-4-carboxamide], the inhibitory constant (Ki) was found to be 4320 nM. The same measure, in the same setting: the same measure for `C[C@@H](NC(=O)c1cc(=O)[nH]c(-c2ccccc2)n1)c1ccc(O)cc1` [Example 339, N-[(1R)-1-(4-hydroxyphenyl)ethyl]-6-oxo-2-phenyl-1,6-dihydropyrimidine-4-carboxamide]: around 417 nM; for `CC(NC(=O)c1cc(=O)[nH]c(-c2ccccc2)n1)c1ccc(C(F)(F)F)nc1` (stereo not drawn) [Example 356, 6-oxo-2-phenyl-N-{1-[6-(trifluoromethyl)pyridin-3-yl]ethyl}-1,6-dihydropyrimidine-4-carboxamide]: 345 nM.

With `C[C@@H](NC(=O)c1cc(=O)[nH]c(-c2ncccn2)n1)c1ccc(CC(F)(F)F)cc1` [Example 107, 6-oxo-N-{(1R)-1-[4-(2,2,2-trifluoroethyl)phenyl]ethyl}-1,6-dihydro-2,2′-bipyrimidine-4-carboxamide], the inhibition constant (Ki) turned out to be 21 nM.

`COc1cc(CN(C)C(=O)c2cc(=O)[nH]c(C)n2)cc(OC)c1OC` [Example 14, N,2-dimethyl-6-oxo-N-(3,4,5-trimethoxybenzyl)-1,6-dihydropyrimidine-4-carboxamide]: the inhibition constant Ki stood at 1860 nM. On the same count and under the same terms, the same measure for `O=C(N[C@@H](c1ccc(C(F)(F)F)cc1)C1CC1)c1cc(=O)[nH]c(-c2ncccn2)n1` [Example 94, N-{(R)-cyclopropyl[4-(trifluoromethyl)phenyl]methyl}-6-oxo-1,6-dihydro-2,2′-bipyrimidine-4-carboxamide]: 20 nM; for `C[C@@H](NC(=O)c1cc(=O)[nH]c(-c2ccccc2)n1)c1ccccc1` [Example 342, 6-oxo-2-phenyl-N-[(1R)-1-phenylethyl]-1,6-dihydropyrimidine-4-carboxamide]: around 605 nM; for `O=C(c1cc(=O)[nH]c(-c2ccccc2)n1)N1CCCCC1c1ccc(C(F)(F)F)cc1` (stereo not drawn) [Example 346, 2-phenyl-6-({2-[4-(trifluoromethyl)phenyl]piperidin-1-yl}carbonyl)pyrimidin-4(3H)-one]: 2350 nM.

Still in this assay, the particulars now being: Rhesus PDE2, Lab B; read-out: Rhesus PDE2 Ki (nM) - Lab B.
Consider `CC[C@@H](NC(=O)c1cc(=O)[nH]c(C(C)(C)c2ccc(OC)cc2)n1)c1ccc(C(F)(F)F)c(F)c1` [Example 503, N-{(1R)-1-[3-fluoro-4-(trifluoromethyl)phenyl]propyl}-2-[1-(4-methoxyphenyl)-1-methylethyl]-6-oxo-1,6-dihydropyrimidine-4-carboxamide], for which the Ki worked out at 111 nM. In the case of `Cc1nc(C(=O)NC(c2ccc(C3(C)CC3)c(F)c2)C(C)(C)C)cc(=O)[nH]1` (single isomer, unassigned) [Example 710, (S)- or (R)-N-(1-(3-fluoro-4-(1-methylcyclopropyl)phenyl)-2,2-dimethylpropyl)-2-methyl-6-oxo-1,6-dihydropyrimidine-4-carboxamide], the Ki was above 2970 nM. In the case of `COc1ccc(C(C)(C)c2nc(C(=O)N[C@@H](c3ccc(C(F)(F)F)cc3)C(C)(C)C)cc(=O)[nH]2)cc1` [Example 456, N-{(1R)-2,2-dimethyl-1-[4-(trifluoromethyl)phenyl]propyl}-2-[1-(4-methoxyphenyl)-1-methylethyl]-6-oxo-1,6-dihydropyrimidine-4-carboxamide], the inhibitory constant (Ki) was found to be 98 nM. On the same count and under the same terms, the same measure for `CCOC(=O)c1ccc([C@@H](C)NC(=O)c2cc(=O)[nH]c(-c3ccccc3)n2)cc1` [Example 355, ethyl 4-[(1R)-1-{[(6-oxo-2-phenyl-1,6-dihydropyrimidin-4-yl)carbonyl]amino}ethyl]benzoate]: around 29200 nM; for `COc1ccc(C(C)(C)NC(=O)c2cc(=O)[nH]c(-c3ccccc3)n2)cc1` [Example 460, N-[1-(4-methoxyphenyl)-1-methylethyl]-6-oxo-2-phenyl-1,6-dihydropyrimidine-4-carboxamide]: 371 nM; for `Cc1nc(C(=O)NC(c2ccc(SC(F)(F)F)cc2)C(C)C)cc(=O)[nH]1` (stereo in doubt) [Example 615, 2-methyl-N-[(1S)-2-methyl-1-{4-[(trifluoromethyl)sulfanyl]phenyl}propyl]-6-oxo-1,6-dihydropyrimidine-4-carboxamide]: 441 nM. Same read-out and setting: to `Cc1nc(C(=O)NC(C)(C)c2ccc(S(F)(F)(F)(F)F)cc2)cc(=O)[nH]1` [Example 677, 2-methyl-N-{1-methyl-1-[4-(pentafluoro-λ^6-sulfanyl)phenyl]ethyl}-6-oxo-1,6-dihydropyrimidine-4-carboxamide] belongs 129 nM; to `C[C@H](NC(=O)c1cc(=O)[nH]c(-c2ccccc2)n1)c1ccc(Cl)cc1` [Example 394, N-[(1S)-1-(4-chlorophenyl)ethyl]-6-oxo-2-phenyl-1,6-dihydropyrimidine-4-carboxamide], 2220 nM; to `C[C@H](NC(=O)c1cc(=O)[nH]c(-c2ccccc2)n1)c1cccc2ccccc12` [Example 362, N-[(1S)-1-naphthalen-1-ylethyl]-6-oxo-2-phenyl-1,6-dihydropyrimidine-4-carboxamide], around 24700 nM.

For the compound `COc1ccc([C@H](C)NC(=O)c2cc(=O)[nH]c(-c3ccccc3)n2)cc1` [Example 357, N-[(1S)-1-(4-methoxyphenyl)ethyl]-6-oxo-2-phenyl-1,6-dihydropyrimidine-4-carboxamide], the inhibitory constant (Ki) is around 11300 nM.

For the compound `C[C@@H](NC(=O)c1cc(=O)[nH]c(-c2ccccc2)n1)c1ccc(O)cc1` [Example 339, N-[(1R)-1-(4-hydroxyphenyl)ethyl]-6-oxo-2-phenyl-1,6-dihydropyrimidine-4-carboxamide], the Ki was 653 nM. Same read-out and setting: to `CC(C)c1ccc(CNC(=O)c2cc(=O)[nH]c(-c3ccccc3)n2)cc1` [Example 414, N-[4-(1-methylethyl)benzyl]-6-oxo-2-phenyl-1,6-dihydropyrimidine-4-carboxamide] belongs 136 nM; to `CC(NC(=O)c1cc(=O)[nH]c(-c2ccccc2)n1)c1ccc(C(F)(F)F)nc1` (stereo not drawn) [Example 356, 6-oxo-2-phenyl-N-{1-[6-(trifluoromethyl)pyridin-3-yl]ethyl}-1,6-dihydropyrimidine-4-carboxamide], 490 nM. The same measure, in the same setting: to `C[C@H](c1ccc(C(F)(F)F)cc1)N(C)C(=O)c1cc(=O)[nH]c(-c2ccccc2)n1` [Example 389, N-methyl-6-oxo-2-phenyl-N-{(1R)-1-[4-(trifluoromethyl)phenyl]ethyl}-1,6-dihydropyrimidine-4-carboxamide] belongs 8980 nM; to `C[C@@H](NC(=O)c1cc(=O)[nH]c(-c2ccccc2)n1)c1ccccc1` [Example 342, 6-oxo-2-phenyl-N-[(1R)-1-phenylethyl]-1,6-dihydropyrimidine-4-carboxamide], 963 nM; to `O=C(NC(c1ccncc1)c1ccc(C(F)(F)F)cc1)c1cc(=O)[nH]c(-c2ccccc2)n1` (stereo not drawn) [Example 399, 6-oxo-2-phenyl-N-{pyridin-4-yl[4-(trifluoromethyl)phenyl]methyl}-1,6-dihydropyrimidine-4-carboxamide], 407 nM. Regarding `C[C@H](O)[C@@H](NC(=O)c1cc(=O)[nH]c(C2CC2)n1)c1ccc(C(F)(F)F)cc1` [Example 442, 2-cyclopropyl-N-{(1S,2S)-2-hydroxy-1-[4-(trifluoromethyl)phenyl]propyl}-6-oxo-1,6-dihydropyrimidine-4-carboxamide], the inhibition constant Ki is above 2970 nM.
